Experimental data published in US20140294991A1, “MEDICAMENT FOR TREATING ANTERIOR EYE DISEASE COMPRISING REBAMIPIDE AND A TEAR-RETAINING AGENT” (OTSUKA PHARMACEUTICAL CO., LTD., priority 2011, published 2014).

Test system: tear deficient rat model
Test: Tear volume by Schirmer's test in capsaicin-induced tear deficient rat model
Assay type: in vivo, Wister/ST rat
Settings: Pharmacological Experiment 3; repeated administration test; compared with non-treated group (FIG. 5)
Experimental: To evaluate the utility of a combination of rebamipide and a tear-retaining agent or an artificial tear, rebamipide and sodium hyaluronate were administrated in combination to a tear deficient rat model, and the tear volume was measured and the corneal epithelial damage was evaluated. The tests were carried out in single administration and repeated administration.
Capsaicin (50 mg/kg) was administered to a 4-day-old Wister/ST rat, and 4 weeks later the rat was used as a tear deficient rat model.
For the single administration test, 5 μl of each drug solution for one eye was topically administrated to the rats of the “2% rebamipide-treated” group, “0.1% sodium hyaluronate-treated” group, and “2% rebamipide+0.1% sodium hyaluronate-treated” group. For the combination administration, 0.1% sodium hyaluronate was administrated 5 minutes after the administration of 2% rebamipide.
For the repeated administration test, 5 μl of each drug solution for one eye was topically administrated to the rats of the “2% rebamipide-treated” group (4 times/day), “0.1% sodium hyaluronate-treated” group (6 times/day), and “2% rebamipide (4 times/day)+0.1% sodium hyaluronate (6 times/day)-treated” group. […]
The tear volumes were measured as an index of a tear-retention capacity by Schirmer's test.

Structure (SMILES): O=C(NC(Cc1cc(=O)[nH]c2ccccc12)C(=O)O)c1ccc(Cl)cc1 (stereo not shown) [rebamipide, 2-(4-chlorobenzoylamino)-3-[2(1H)-quinolin-4-yl]propionic acid]
- tear volume (tear-retention capacity): significantly higher
